Each structure is given as a SMILES string. Read-outs that look alike come from different tables or passages of the source.

Common to all, as to experiment: Test A pre/postemergence
Assay type in all cases: in vivo

The subject of experiment [1] is barnyardgrass (Echinochloa crus-galli). The note with it: for pest or weed control at 125 g/ha / pest or weed control at 500 g/ha: Echinochloa crus-galli, 240 h, read-out: Plant response rating, Barnyardgrass. The gist of the method:
(§1)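 Ratings: 0 = no effect, 100 = complete control, assessed visually about ten days post-treatment in a greenhouse. Applications: soil-directed preemergence spray and postemergence spray on 1- to 2-leaf plants, both using a surfactant-containing non-phytotoxic solvent formulation.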

The test system of experiment [2] is crabgrass (Digitaria sanguinalis). Conditions: for pest or weed control at 125 g/ha / pest or weed control at 500 g/ha: Digitaria sanguinalis, 240 h, read-out: Plant response rating, Crabgrass. The gist of the method:
as §1

Experiment [3] has as its system giant foxtail (Setaria faberi). Conditions: for pest or weed control at 125 g/ha / pest or weed control at 500 g/ha: Setaria faberi, 240 h, read-out: Plant response rating, Foxtail, Giant. The gist of the method:
as §1

The test system of experiment [4] is morningglory (Ipomoea spp.). The note with it: for pest or weed control at 125 g/ha / pest or weed control at 500 g/ha: Ipomoea, 240 h, read-out: Plant response rating, Morningglory. The gist of the method: as §1
For experiment [5], the system named is redroot pigweed (Amaranthus retroflexus). Conditions: for pest or weed control at 125 g/ha / pest or weed control at 500 g/ha: Amaranthus retroflexus, 240 h, read-out: Plant response rating, Pigweed. The gist of the method: as §1
Experiment [6] relates to velvetleaf (Abutilon theophrasti). Conditions: for pest or weed control at 125 g/ha / pest or weed control at 500 g/ha: Abutilon theophrasti, 240 h, read-out: Plant response rating, Velvetleaf. The gist of the method:
as §1

Where [7] appears, read: post-emergence, Postemergence, 125 g ai/ha, 0 to 100 scale (0 no effect, 100 complete control).
[8] abbreviates: post-emergence, Postemergence, 500 g ai/ha, 0 to 100 scale (0 no effect, 100 complete control).
Where [9] appears, read: pre-emergence, Preemergence, 125 g ai/ha, 0 to 100 scale where 0 is no effect and 100 is complete control, approximately ten days.
[10] abbreviates: pre-emergence, Preemergence, 500 g ai/ha, 0 to 100 scale where 0 is no effect and 100 is complete control, approximately ten days.
Setting [11] is: Postemergence, 125 g ai/ha, 0 to 100 scale (0 no effect, 100 complete control).
[12] abbreviates: Postemergence, 500 g ai/ha, 0 to 100 scale (0 no effect, 100 complete control).
The mark [13] stands for this setting: Preemergence, 125 g ai/ha, 0 to 100 scale where 0 is no effect and 100 is complete control, approximately ten days.
[14] abbreviates: Preemergence, 500 g ai/ha, 0 to 100 scale where 0 is no effect and 100 is complete control, approximately ten days.

For the compound `CCOC(=O)c1nc(-c2ccc3ccccc3c2)nc(N)c1Cl` [Compound 127], the pest or weed control at 125 g/ha in experiment [1] (setting [7]), in experiment [1] (setting [9]), in experiment [2] (setting [7]), in experiment [2] (setting [9]), in experiment [3] (setting [7]) and in experiment [3] (setting [9]) was 0% in each case. The pest or weed control at 125 g/ha was 0% in experiment [4] (setting [7]); 0% in experiment [4] (setting [9]); 0% in experiment [5] (setting [7]); 0% in experiment [5] (setting [9]); 60% in experiment [6] (setting [7]); 0% in experiment [6] (setting [9]). In addition, the pest or weed control at 500 g/ha in experiment [1] (setting [8]), in experiment [1] (setting [10]), in experiment [2] (setting [8]), in experiment [2] (setting [10]), in experiment [3] (setting [8]) and in experiment [3] (setting [10]) was 0% throughout. The pest or weed control at 500 g/ha in experiment [4] (setting [8]) is 0%; in experiment [4] (setting [10]), 0%; in experiment [5] (setting [8]), 10%; in experiment [5] (setting [10]) it was 0%; in experiment [6] (setting [8]) it was 80%; in experiment [6] (setting [10]) it was 0%.

Take `Nc1nc(-c2ccc(F)cc2)nc(C(=O)O)c1Cl` [Compound 90]: the “Plant response rating, Barnyardgrass” value in experiment [1] (setting [11]) is 0; in experiment [1] (setting [12]) it was 10; in experiment [1] (setting [13]) it was 0; in experiment [1] (setting [14]) it was 35. Besides, the “Plant response rating, Crabgrass” value in experiment [2] (setting [11]) is 0; in experiment [2] (setting [12]) it was 20; in experiment [2] (setting [13]), 10; in experiment [2] (setting [14]), 50. Moreover, the “Plant response rating, Foxtail, Giant” value in experiment [3] (setting [11]) was 0; in experiment [3] (setting [12]) it was 30; in experiment [3] (setting [13]), 0; in experiment [3] (setting [14]), 15. In addition, the “Plant response rating, Morningglory” value in experiment [4] (setting [11]) is given as 20; in experiment [4] (setting [12]), 65; in experiment [4] (setting [13]), 0; in experiment [4] (setting [14]), 25. For the same compound, the “Plant response rating, Pigweed” value in experiment [5] (setting [11]) is recorded as 35; in experiment [5] (setting [12]) it was 90; in experiment [5] (setting [13]), 70; in experiment [5] (setting [14]), 80. The “Plant response rating, Velvetleaf” value is given as 65 in experiment [6] (setting [11]), 85 in experiment [6] (setting [12]), 10 in experiment [6] (setting [13]) and 45 in experiment [6] (setting [14]).

With `CCOC(=O)COc1nc(C2CC2)nc(N)c1Cl` [Compound 115], the “Plant response rating, Barnyardgrass” value is 0 in experiment [1] (setting [11]), 0 in experiment [1] (setting [12]), 0 in experiment [1] (setting [13]) and 20 in experiment [1] (setting [14]). Besides, the “Plant response rating, Crabgrass” value in experiment [2] (setting [11]) turned out to be 0; in experiment [2] (setting [12]) it was 0; in experiment [2] (setting [13]), 0; in experiment [2] (setting [14]) it was 10. Further, the “Plant response rating, Foxtail, Giant” value in experiment [3] (setting [11]), in experiment [3] (setting [12]), in experiment [3] (setting [13]) and in experiment [3] (setting [14]) was 0 throughout. For the same compound, the “Plant response rating, Morningglory” value in experiment [4] (setting [11]) stood at 35; in experiment [4] (setting [12]), 60; in experiment [4] (setting [13]) it was 25; in experiment [4] (setting [14]), 35. For the same compound, the “Plant response rating, Pigweed” value in experiment [5] (setting [11]) came to 10; in experiment [5] (setting [12]), 45; in experiment [5] (setting [13]) it was 30; in experiment [5] (setting [14]), 40. Besides, the “Plant response rating, Velvetleaf” value in experiment [6] (setting [11]) is given as 30; in experiment [6] (setting [12]) it was 40; in experiment [6] (setting [13]), 5; in experiment [6] (setting [14]) it was 10.

Regarding `CCOC(OCC)c1nc(-c2ccc(I)cc2)nc(N)c1Cl` [Compound 138], the “Plant response rating, Barnyardgrass” value in experiment [1] (setting [11]), in experiment [1] (setting [12]), in experiment [1] (setting [13]) and in experiment [1] (setting [14]) was 0 throughout. For the same compound, the “Plant response rating, Crabgrass” value in experiment [2] (setting [11]), in experiment [2] (setting [12]), in experiment [2] (setting [13]) and in experiment [2] (setting [14]) was 0 in each case. Moreover, the “Plant response rating, Foxtail, Giant” value in experiment [3] (setting [11]), in experiment [3] (setting [12]), in experiment [3] (setting [13]) and in experiment [3] (setting [14]) was 0 throughout. Moreover, the “Plant response rating, Morningglory” value turned out to be 0 in experiment [4] (setting [11]), 20 in experiment [4] (setting [12]), 0 in experiment [4] (setting [13]) and 0 in experiment [4] (setting [14]). Further, the “Plant response rating, Pigweed” value is given as 20 in experiment [5] (setting [11]), 35 in experiment [5] (setting [12]), 0 in experiment [5] (setting [13]) and 0 in experiment [5] (setting [14]). Further, the “Plant response rating, Velvetleaf” value is on record as 60 in experiment [6] (setting [11]), 70 in experiment [6] (setting [12]), 0 in experiment [6] (setting [13]) and 0 in experiment [6] (setting [14]).
